Test results taken from patent publication US12145944B2, “Imidazopyrimidines as EED inhibitors and the use thereof” (THE REGENTS OF THE UNIVERSITY OF MICHIGAN, priority 2019, dated 2024).
Like-named read-outs stand apart in the source and are kept apart here.

How the values were obtained:
Pfeiffer cell line = test: Anti-proliferative activity, Pfeiffer cell line, 7 day treatment; assay type: cell-based; conditions: Homo sapiens, 168 h, 7 day treatment, read-out: Pfeiffer Cell line
Experimental: “N/A” stands for “not assessed”.
To assess the effect of PRC2 inhibition on cell growth, cells were seeded in 96-well cell culture plates at a density of 2 000-3 000 cells/well in 200 µL of culture medium, and treated with serially diluted compounds for 7 days at 37° C. in an atmosphere of 5% CO2. Cell growth was evaluated by a […] WST-8 assay (Dojindo Molecular Technologies) using a Tecan Infinite M1000 multimode microplate reader (Tecan, Morrisville, NC). The WST-8 reagent was added to the plate, incubated for 1-4 h, and read at 450 nm. The readings were normalized to the DMSO-treated cells, and the IC50 was calculated by nonlinear regression analysis using GraphPad Prism 6 software

[1] = tested on: KARPAS422 human B cell lymphoma cell; test: Cell proliferation, KARPAS422, 7 day treatment (WST-8); assay type: cell-based; conditions: Homo sapiens, KARPAS-422, 168 h, 7 day treatment, read-out: Karpas Cell line
Outline: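 Read-out was WST-8 absorbance at 450 nm after 1-4 h with reagent, taken after 7-day compound treatment (serial dilutions, 37 °C, 5% CO2) of 2 000-3 000 KARPAS422 cells per well. IC50 fitted by nonlinear regression on DMSO-normalized values.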

[2] = anti-proliferative IC50, Pfeiffer cell line
[3] = anti-proliferative IC50, Karpas 422 cell line
[4] = anti-proliferative IC50 class, Pfeiffer cell line
[5] = anti-proliferative IC50 class, Karpas 422 cell line

Molecule `O=C1c2ncn3c(NCc4c(F)ccc5c4CCO5)ncc(c23)-c2cnc(C(F)(F)F)cc2CN1CC1(O)CC1` [compound 43, 12-(((5-fluoro-2,3-dihydrobenzofuran-4-yl)methyl)amino)-4-((1-hydroxycyclopropyl)methyl)-7-(trifluoromethyl)-4,5-dihydro-3H-2,4,8,11,12a-pentaazabenzo[4,5]cycloocta[1,2,3-cd]inden-3-one] has an IC50 (Pfeiffer cell line; [2]) of 1.05 nM and an IC50 [1, 3] of 5.46 nM.

`O=C1c2ncn3c(NCc4c(F)ccc5c4CCO5)ncc(c23)-c2ccc(C3COCCO3)nc2CN1CC(F)(F)F` (stereo not shown) [E 48, 7-(1,4-dioxan-2-yl)-12-(((5-fluoro-2,3-dihydrobenzofuran-4-yl)methyl)amino)-4-(2,2,2-trifluoroethyl)-4,5-dihydro-3H-2,4,6,11,12a-pentaazabenzo[4,5]cycloocta[1,2,3-cd]inden-3-one] was tested, and the IC50 (Pfeiffer cell line; [4]) was less than 10 nM and the IC50 [1, 5] was less than 10 nM.

In the case of `O=C1OCc2cc(F)ccc2-c2cnc(NCc3c(F)ccc4c3CCO4)n3cnc1c23` [compound 7, 7-fluoro-12-(((5-fluoro-2,3-dihydrobenzofuran-4-yl)methyl)amino)-3H,5H-4-oxa-2,11,12a-triazabenzo[4,5]cycloocta[1,2,3-cd]inden-3-one], the IC50 (Pfeiffer cell line; [2]) is reported as 0.68 nM and the IC50 [1, 3] is reported as 3.35 nM.

Work on `Cc1cnc2n1Cc1cc(C(F)(F)F)ncc1-c1cnc(NCc3c(F)ccc4c3CCO4)n3cnc-2c13` [E 10, N-((5-fluoro-2,3-dihydrobenzofuran-4-yl)methyl)-5-methyl-8-(trifluoromethyl)-6H-2,3,5a,9,12,13a-hexaazabenzo[4,5]cyclopenta[7,8]cycloocta[1,2,3-cd]inden-13-amine] yielded an IC50 (Pfeiffer cell line; [4]) of 10 to 100 nM and an IC50 [1, 5] of 10 to 100 nM.

In the case of `O=C1NCc2cc(C(F)(F)F)ccc2-c2cnc(NCc3c(F)ccc4c3CCO4)n3cnc1c23` [compound 19, 12-(((5-fluoro-2,3-dihydrobenzofuran-4-yl)methyl)amino)-7-(trifluoromethyl)-4,5-dihydro-3H-2,4,11,12a-tetraazabenzo[4,5]cycloocta[1,2,3-cd]inden-3-one], the IC50 (Pfeiffer cell line; [2]) is reported as 0.79 nM and the IC50 [1, 3] is reported as 9.6 nM.

In the case of `O=C1NCCc2ccccc2-c2cnc(NCc3c(F)ccc4c3CCO4)n3cnc1c23` [E 28, 13-(((5-fluoro-2,3-dihydrobenzofuran-4-yl)methyl)amino)-5,6-dihydro-2,4,12,13a-tetraazabenzo[4,5]cyclonona[1,2,3-cd]inden-3(4H)-one], the IC50 (Pfeiffer cell line; [4]) is reported as 10 to 100 nM and the IC50 [1, 5] is reported as greater than 100 nM.

Work on `CN1CCC(CN2Cc3cc(C(F)(F)F)ncc3-c3cnc(NCc4c(F)ccc5c4CCO5)n4cnc(c34)C2=O)CC1` [compound 38, 12-(((5-fluoro-2,3-dihydrobenzofuran-4-yl)methyl)amino)-4-((1-methylpiperidin-4-yl)methyl)-7-(trifluoromethyl)-4,5-dihydro-3H-2,4,8,11,12a-pentaazabenzo[4,5]cycloocta[1,2,3-cd]inden-3-one] yielded an IC50 (Pfeiffer cell line; [2]) of 3.22 nM and an IC50 [1, 3] of 15.7 nM.

In the case of `Cc1cc2c(cn1)-c1cnc(NCc3c(F)ccc4c3CCO4)n3cnc(c13)C(=O)N(CC(F)F)C2` [E 9, 4-(2,2-difluoroethyl)-12-(((5-fluoro-2,3-dihydrobenzofuran-4-yl)methyl)amino)-7-methyl-4,5-dihydro-3H-2,4,8,11,12a-pentaazabenzo[4,5]cycloocta[1,2,3-cd]inden-3-one], the IC50 (Pfeiffer cell line; [4]) is reported as less than 10 nM and the IC50 [1, 5] is reported as less than 10 nM.

In the case of `O=C1OCc2c(F)cccc2-c2cnc(NCc3c(F)ccc4c3CCO4)n3cnc1c23` [compound 11, 6-fluoro-12-(((5-fluoro-2,3-dihydrobenzofuran-4-yl)methyl)amino)-3H,5H-4-oxa-2,11,12a-triazabenzo[4,5]cycloocta[1,2,3-cd]inden-3-one], the IC50 (Pfeiffer cell line; [2]) is reported as 1.22 nM and the IC50 [1, 3] is reported as 4.61 nM.

Molecule `O=C1OCc2cc(F)ccc2-c2cnc(NCc3cccc4c3CCO4)n3cnc1c23` [compound 9, 12-(((2,3-dihydrobenzofuran-4-yl)methyl)amino)-7-fluoro-3H,5H-4-oxa-2,11,12a-triazabenzo[4,5]cycloocta[1,2,3-cd]inden-3-one] has an IC50 (Pfeiffer cell line; [2]) of 1.81 nM and an IC50 [1, 3] of 5.6 nM.

`Fc1ccc2c(c1CNc1ncc3c4c(ncn14)-c1nccn1Cc1cc(C(F)(F)F)ncc1-3)CCO2` [E 33, N-((5-fluoro-2,3-dihydrobenzofuran-4-yl)methyl)-8-(trifluoromethyl)-6H-2,3,5a,9,12,13a-hexaazabenzo[4,5]cyclopenta[7,8]cycloocta[1,2,3-cd]inden-13-amine] showed an IC50 (Pfeiffer cell line; [4]) of 10 to 100 nM and an IC50 [1, 5] of 10 to 100 nM.

Molecule `CN1Cc2cc(C(F)(F)F)ncc2-c2cnc(NCc3c(F)ccc4c3CCO4)n3cnc(c23)C1=O` [compound 34, 12-(((5-fluoro-2,3-dihydrobenzofuran-4-yl)methyl)amino)-4-methyl-7-(trifluoromethyl)-4,5-dihydro-3H-2,4,8,11,12a-pentaazabenzo[4,5]cycloocta[1,2,3-cd]inden-3-one] has an IC50 (Pfeiffer cell line; [2]) of 0.35 nM and an IC50 [1, 3] of 2.64 nM.

`O=C1OCc2cc(C(F)(F)F)ccc2-c2cnc(NCc3c(F)ccc4c3CCO4)n3cnc1c23` [compound 8, 12-(((5-fluoro-2,3-dihydrobenzofuran-4-yl)methyl)amino)-7-(trifluoromethyl)-3H,5H-4-oxa-2,11,12a-triazabenzo[4,5]cycloocta[1,2,3-cd]inden-3-one] gave an IC50 (Pfeiffer cell line; [2]) of 0.57 nM and an IC50 [1, 3] of 2.91 nM.

Molecule `O=C1OCc2nc(C(F)(F)F)ccc2-c2cnc(NCc3c(F)ccc4c3CCO4)n3cnc1c23` [compound 14, 12-(((5-fluoro-2,3-dihydrobenzofuran-4-yl)methyl)amino)-7-(trifluoromethyl)-3H,5H-4-oxa-2,6,11,12a-tetraazabenzo[4,5]cycloocta[1,2,3-cd]inden-3-one] has an IC50 (Pfeiffer cell line; [2]) of 0.36 nM and an IC50 [1, 3] of 3.49 nM.

Work on `CCN1Cc2cc(C(F)(F)F)ncc2-c2cnc(NCc3c(F)ccc4c3CCO4)n3cnc(c23)C1=O` [compound 90, 4-ethyl-12-(((5-fluoro-2,3-dihydrobenzofuran-4-yl)methyl)amino)-7-(trifluoromethyl)-4,5-dihydro-3H-2,4,8,11,12a-pentaazabenzo[4,5]cycloocta[1,2,3-cd]inden-3-one] yielded an IC50 (Pfeiffer cell line; [2]) of 0.044 nM and an IC50 [1, 3] of 0.078 nM.

With `O=C1c2ncn3c(NCc4c(F)ccc5c4CCO5)ncc(c23)-c2cnc(C(F)(F)F)cc2CN1C1CCC1` [E 5, 4-cyclobutyl-12-(((5-fluoro-2,3-dihydrobenzofuran-4-yl)methyl)amino)-7-(trifluoromethyl)-4,5-dihydro-3H-2,4,8,11,12a-pentaazabenzo[4,5]cycloocta[1,2,3-cd]inden-3-one] the IC50 (Pfeiffer cell line; [4]) was less than 10 nM and the IC50 [1, 5] was less than 10 nM.

`O=C1NCc2ccc(F)cc2-c2cnc(NCc3c(F)ccc4c3CCO4)n3cnc1c23` [compound 23, 8-fluoro-12-(((5-fluoro-2,3-dihydrobenzofuran-4-yl)methyl)amino)-4,5-dihydro-3H-2,4,11,12a-tetraazabenzo[4,5]cycloocta[1,2,3-cd]inden-3-one] was tested, and the IC50 (Pfeiffer cell line; [2]) was 9.95 nM and the IC50 [1, 3] was 89.2 nM.

In the case of `CC(C)N1Cc2cc(C#N)ccc2-c2cnc(NCc3c(F)ccc4c3CCO4)n3cnc(c23)C1=O` [E 4, 12-(((5-fluoro-2,3-dihydrobenzofuran-4-yl)methyl)amino)-4-isopropyl-3-oxo-4,5-dihydro-3H-2,4,11,12a-tetraazabenzo[4,5]cycloocta[1,2,3-cd]indene-7-carbonitrile], the IC50 (Pfeiffer cell line; [4]) is reported as less than 10 nM and the IC50 [1, 5] is reported as less than 10 nM.

With `CC(C)N1CCc2cc(C(F)(F)F)ncc2-c2cnc(NCc3c(F)ccc4c3CCO4)n3cnc(c23)C1=O` [E 31, 13-(((5-fluoro-2,3-dihydrobenzofuran-4-yl)methyl)amino)-4-isopropyl-8-(trifluoromethyl)-5,6-dihydro-2,4,9,12,13a-pentaazabenzo[4,5]cyclonona[1,2,3-cd]inden-3(4H)-one] the IC50 (Pfeiffer cell line; [4]) was 10 to 100 nM and the IC50 [1, 5] was 10 to 100 nM.

Work on `CC(C)N1Cc2cc(C(F)F)ncc2-c2cnc(NCc3c(F)ccc4c3CCO4)n3cnc(c23)C1=O` [E 11, 7-(difluoromethyl)-12-(((5-fluoro-2,3-dihydrobenzofuran-4-yl)methyl)amino)-4-isopropyl-4,5-dihydro-3H-2,4,8,11,12a-pentaazabenzo[4,5]cycloocta[1,2,3-cd]inden-3-one] yielded an IC50 (Pfeiffer cell line; [4]) of less than 10 nM and an IC50 [1, 5] of less than 10 nM.

`O=C1OCc2cc(C(F)(F)F)ncc2-c2cnc(NCc3c(F)ccc4c3CCO4)n3cnc1c23` [compound 13, 12-(((5-fluoro-2,3-dihydrobenzofuran-4-yl)methyl)amino)-7-(trifluoromethyl)-3H,5H-4-oxa-2,8,11,12a-tetraazabenzo[4,5]cycloocta[1,2,3-cd]inden-3-one] was tested, and the IC50 (Pfeiffer cell line; [2]) was 1.99 nM and the IC50 [1, 3] was 9.03 nM.

Molecule `O=C1c2ncn3c(NCc4c(F)ccc5c4CCO5)ncc(c23)-c2ccc(C3CCOCC3)nc2CN1CC(F)(F)F` [E 45, 12-(((5-fluoro-2,3-dihydrobenzofuran-4-yl)methyl)amino)-7-(tetrahydro-2H-pyran-4-yl)-4-(2,2,2-trifluoroethyl)-4,5-dihydro-3H-2,4,6,11,12a-pentaazabenzo[4,5]cycloocta[1,2,3-cd]inden-3-one] has an IC50 (Pfeiffer cell line; [4]) of less than 10 nM and an IC50 [1, 5] of less than 10 nM.

`CS(=O)(=O)c1ccc2c(c1)NC(=O)c1ncn3c(NCc4c(F)ccc5c4CCO5)ncc-2c13` [compound 5, 11-(((5-fluoro-2,3-dihydrobenzofuran-4-yl)methyl)amino)-6-(methylsulfonyl)-2,4,10,11a-tetraazadibenzo[cd,f]azulen-3(4H)-one] showed an IC50 (Pfeiffer cell line; [2]) of 18.1 nM and an IC50 [1, 3] of 32.2 nM.
